Patent publication US9434711B2 (Janssen Pharmaceutica, NV, priority 2007, dated 2016)

Test system: male Sprague-Dawley rats
Assay: Cold-Evoked Cardiovascular Pressor Responses (anesthetized rat cold pressor paradigm)
Assay type: in vivo
Settings: HPbCD, 1.5 hours relative to Cold Challenge, Na salt form
Excerpt: Compounds of the formula (I) can be tested in animals and humans for their ability to mitigate cardiovascular pressor responses evoked by cold exposure. Seasonal environmental cooling is directly associated with elevated blood pressure and an increased incidence of coronary events in human populations worldwide (Barnett, A G et al. J Epidemiol Community Heath 2005, 59 551-557). Cold-evoked pulmonary hypertention and cold aggravation of chronic obstructive pulmonary disease are clinical indications susceptible to heightened cardiopulmonary sensitivity to cold (Marno P et al. Eur Respiratory Review 2006, 15 (101): 185.; Acikel M et al Int J of Cardiol (2004) 97: 187-192). The clinical cold pressor test assesses changes in blood pressure (BP) and cold pain perception during a 2-3 minute immersion of one hand into ice water. […] Compounds of the formula (I) can be studied in an anesthetized rat cold pressor paradigm to determine whether TRPM8 antagonism would interfere with the blood pressure pressor response to cold stimulation of the forepaws. Male Sprague-Dawley rats (300-450 g) anesthetized with sodium pentobarbital are instrumented with a jugular catheter and an indwelling carotid artery cannula connected to a pressure transducer. Vehicle (e.g. 20% HPbCD in sterile water) or test compound is infused (1 mL/kg) over one minute through the intravenous catheter. Ten minutes later both forelimbs are packed in crushed ice for 5 minutes. Alternatively, the test compound and vehicle treatments may be administered orally at an appropriated time prior to the surgical cannulations and cold challenge. Percent changes in mean arterial pressure in response to this cold stimulus are calculated for vehicle and test compound pretreatments. Percent inhibition attributed to treatment with test compound is then determined using the following formula: % Inhibition=[1−(cold evoked % change in BP post-test compound/cold evoked % change in BP post-vehicle)]×100.

## Cc1c(N(Cc2ccc(F)c(C(F)(F)F)c2)S(=O)(=O)c2ccc(C(=O)O)cc2)sc2ccccc12 [Compound 306, N-(3-Methyl-benzo[b]thiophen-2-yl)-N-(4-fluoro-3-trifluoromethyl-benzyl)-4-carboxy-benzenesulfonamide]
Dose 1 p.o.
  Percent Inhibition, relative to vehicle: 16%
Dose 3 p.o.
  Percent Inhibition, relative to vehicle: 41%
Dose 10 p.o.
  Percent Inhibition, relative to vehicle: 62%
Dose 30 p.o.
  Percent Inhibition, relative to vehicle: 75%
